Assay results: US12110294B2, “CD73 compounds” (Gilead Sciences, Inc., priority 2020, dated 2024)

Each compound was assayed against T1, CD73 activity in MDA-MB-231-GFP cells (Homo sapiens, UniProt P21589) (assay: MDA-MB-231 Cell Based CD73 Activity Assay (DMEM)). Details: 3000 cells per well, DMEM medium with 10% human plasma, overnight compound treatment, AMP 200 uM.
T1 construct: endogenous in cells; host or cells: MDA-MB-231-GFP cells
T1 sequence (P21589 27-549): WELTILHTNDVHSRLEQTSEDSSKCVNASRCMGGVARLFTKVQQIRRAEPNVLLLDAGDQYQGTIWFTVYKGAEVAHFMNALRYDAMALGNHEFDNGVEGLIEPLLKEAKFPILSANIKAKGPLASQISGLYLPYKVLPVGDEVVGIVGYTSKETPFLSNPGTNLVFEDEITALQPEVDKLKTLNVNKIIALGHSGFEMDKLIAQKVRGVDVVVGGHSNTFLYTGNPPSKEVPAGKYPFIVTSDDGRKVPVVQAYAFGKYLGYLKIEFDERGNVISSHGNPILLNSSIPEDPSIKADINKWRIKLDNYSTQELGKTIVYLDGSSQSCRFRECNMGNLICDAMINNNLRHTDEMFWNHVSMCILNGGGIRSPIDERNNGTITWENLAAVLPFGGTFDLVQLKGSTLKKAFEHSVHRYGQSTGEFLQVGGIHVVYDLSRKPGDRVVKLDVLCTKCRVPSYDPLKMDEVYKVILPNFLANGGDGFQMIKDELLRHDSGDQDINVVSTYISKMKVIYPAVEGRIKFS
Procedure: MDA-MB-231 Cell Based CD73 Activity Assay (DMEM) MDA-MB-231-GFP cells were seeded in 384-well plates (Greiner 781946) at a density of 3000 cells per well in 50 μL of DMEM medium with 10% HP (human plasma). Cells were plated into assay plate with compounds pre-spotted, for an overnight compound treatment. 50 uL of 400 uM AMP (final concentration will be 200 uM) was added using Bio-tek dispenser. Plates were incubated for 100 mins. […] The samples were analyzed using Rapid fire.
Compound `O=c1[nH]cc(-c2cc([C@H]3C[C@@H]3c3ccc4c(F)nn(CC(F)(F)F)c4c3)c3nccn3n2)c(=O)[nH]1` (racemic) [Example 117, 5-(8-((2S,2S)-2-(3-fluoro-1-(2,2,2-trifluoroethyl)-1H-indazol-6-yl)cyclopropyl)imidazo[1,2-b]pyridazin-6-yl)pyrimidine-2,4(1H,3H)-dione] has an EC50 of 0.14 nM. Work on `O=c1[nH]cc(-c2cc([C@H]3C[C@@H]3c3ccc4cnn(CC5CC5(F)F)c4c3)c3nccn3n2)c(=O)[nH]1` (mixture of isomers) [Example 118, 5-(8-((2S,2S)-2-(1-((2,2-difluorocyclopropyl)methyl)-1H-indazol-6-yl)cyclopropyl)imidazo[1,2-b]pyridazin-6-yl)pyrimidine-2,4(1H,3H)-dione] yielded an EC50 of 0.1 nM. Compound `O=c1[nH]cc(-c2cc([C@H]3C[C@@H]3c3cc4c(ccn4CC(F)(F)F)cn3)c3nccn3n2)c(=O)[nH]1` (racemic) [Example 127, 5-(8-((2S,2S)-2-(1-(2,2,2-trifluoroethyl)-1H-pyrrolo[3,2-c]pyridin-6-yl)cyclopropyl)imidazo[1,2-b]pyridazin-6-yl)pyrimidine-2,4(1H,3H)-dione] has an EC50 of 0.17 nM. Work on `O=c1[nH]cc(-c2cc([C@H]3C[C@@H]3c3ccc4c(C5CC5)nn(CC(F)(F)F)c4c3)c3nccn3n2)c(=O)[nH]1` (racemic) [Example 128, 5-(8-((2S,2S)-2-(3-cyclopropyl-1-(2,2,2-trifluoroethyl)-1H-indazol-6-yl)cyclopropyl)imidazo[1,2-b]pyridazin-6-yl)pyrimidine-2,4(1H,3H)-dione] yielded an EC50 of 0.4 nM. `O=c1[nH]cc(-c2cc([C@H]3C[C@@H]3c3ccc4cnn(CC5CC5)c4c3)c3nccn3n2)c(=O)[nH]1` (racemic) [Example 130, 5-(8-((2S,2S)-2-(1-(cyclopropylmethyl)-1H-indazol-6-yl)cyclopropyl)imidazo[1,2-b]pyridazin-6-yl)pyrimidine-2,4(1H,3H)-dione] showed an EC50 of 0.13 nM. Work on `O=c1[nH]cc(-c2cc([C@H]3C[C@@H]3c3ccc4ncsc4c3)c3nc(C4CC4)cn3n2)c(=O)[nH]1` (racemic) [Example 143, 5-(8-((1S,2S)-2-(benzo[d]thiazol-6-yl)cyclopropyl)-2-cyclopropylimidazo[1,2-b]pyridazin-6-yl)pyrimidine-2,4(1H,3H)-dione] yielded an EC50 of 13.1 nM. Compound `N#Cc1ccc([C@H]2C[C@@H]2c2cc(-c3c[nH]c(=O)[nH]c3=O)nn3c(F)cnc23)nc1` (racemic) [Example 151, 6-((1S,2S)-2-(6-(2,4-dioxo-1,2,3,4-tetrahydropyrimidin-5-yl)-3-fluoroimidazo[1,2-b]pyridazin-8-yl)cyclopropyl)nicotinonitrile] has an EC50 of 1.94 nM. For `O=c1[nH]cc(-c2cc([C@H]3C[C@@H]3c3ccc4cccnc4c3)c3nccn3n2)c(=O)[nH]1` (racemic) [Example 154, 5-(8-((1S,2S)-2-(quinolin-7-yl)cyclopropyl)imidazo[1,2-b]pyridazin-6-yl)pyrimidine-2,4(1H,3H)-dione], the EC50 was 5.75 nM. Work on `N#Cc1ccc([C@H]2C[C@@H]2c2cc(-c3c[nH]c(=O)[nH]c3=O)nn3ccnc23)nc1` (racemic) [Example 155, 6-((1S,2S)-2-(6-(2,4-dioxo-1,2,3,4-tetrahydropyrimidin-5-yl)imidazo[1,2-b]pyridazin-8-yl)cyclopropyl)nicotinonitrile] yielded an EC50 of 5.42 nM. Work on `O=c1[nH]cc(-c2cc([C@H]3C[C@@H]3c3ccc4cnccc4c3)c3nccn3n2)c(=O)[nH]1` (racemic) [Example 156, 5-(8-((1S,2S)-2-(isoquinolin-6-yl)cyclopropyl)imidazo[1,2-b]pyridazin-6-yl)pyrimidine-2,4(1H,3H)-dione] yielded an EC50 of 1.87 nM. In the case of `O=c1[nH]cc(-c2cc([C@H]3C[C@@H]3c3ccc4ncccc4c3)c3nccn3n2)c(=O)[nH]1` (racemic) [Example 157, 5-(8-((2S,2S)-2-(quinolin-6-yl)cyclopropyl)imidazo[1,2-b]pyridazin-6-yl)pyrimidine-2,4(1H,3H)-dione], the EC50 is reported as 2.81 nM. `O=c1[nH]cc(-c2cc([C@H]3C[C@@H]3c3ccnc(C(F)(F)F)c3)c3nccn3n2)c(=O)[nH]1` (racemic) [Example 160, 5-(8-((2S,2S)-2-(2-(trifluoromethyl)pyridin-4-yl)cyclopropyl)imidazo[1,2-b]pyridazin-6-yl)pyrimidine-2,4(1H,3H)-dione] gave an EC50 of 27.8 nM. `O=c1[nH]cc(-c2cc([C@H]3C[C@@H]3c3ccncc3F)c3nccn3n2)c(=O)[nH]1` (racemic) [Example 161, 5-(8-((1S,2S)-2-(3-fluoropyridin-4-yl)cyclopropyl)imidazo[1,2-b]pyridazin-6-yl)pyrimidine-2,4(1H,3H)-dione] gave an EC50 of 11 nM. `O=c1[nH]cc(-c2cc([C@H]3C[C@@H]3c3cnc4ccccc4c3)c3nccn3n2)c(=O)[nH]1` (racemic) [Example 163, 5-(8-((1S,2S)-2-(quinolin-3-yl)cyclopropyl)imidazo[1,2-b]pyridazin-6-yl)pyrimidine-2,4(1H,3H)-dione] was tested, and the EC50 was 10.6 nM. `O=c1[nH]cc(-c2cc([C@H]3C[C@@H]3c3cncc(F)c3)c3nccn3n2)c(=O)[nH]1` (racemic) [Example 164, 5-(8-((1S,2S)-2-(5-fluoropyridin-3-yl)cyclopropyl)imidazo[1,2-b]pyridazin-6-yl)pyrimidine-2,4(1H,3H)-dione] gave an EC50 of 14 nM. `O=c1[nH]cc(-c2cc([C@H]3C[C@@H]3c3ccc(C(F)(F)F)cc3F)c3nccn3n2)c(=O)[nH]1` (racemic) [Example 165, 5-(8-((1S,2S)-2-(2-fluoro-4-(trifluoromethyl)phenyl)cyclopropyl)imidazo[1,2-b]pyridazin-6-yl)pyrimidine-2,4(1H,3H)-dione] was tested, and the EC50 was 38.7 nM. For `O=c1[nH]cc(-c2cc([C@H]3C[C@@H]3c3cccc4ccncc34)c3nccn3n2)c(=O)[nH]1` (racemic) [Example 166, 5-(8-((1S,2S)-2-(isoquinolin-8-yl)cyclopropyl)imidazo[1,2-b]pyridazin-6-yl)pyrimidine-2,4(1H,3H)-dione], the EC50 was 378 nM. With `O=c1[nH]cc(-c2cc([C@H]3C[C@@H]3c3ccnc4ccccc34)c3nccn3n2)c(=O)[nH]1` (racemic) [Example 167, 5-(8-((1S,2S)-2-(quinolin-4-yl)cyclopropyl)imidazo[1,2-b]pyridazin-6-yl)pyrimidine-2,4(1H,3H)-dione] the EC50 was 152 nM. With `O=c1[nH]cc(-c2cc([C@H]3C[C@@H]3c3cccc4cnccc34)c3nccn3n2)c(=O)[nH]1` (racemic) [Example 168, 5-(8-((1S,2S)-2-(isoquinolin-5-yl)cyclopropyl)imidazo[1,2-b]pyridazin-6-yl)pyrimidine-2,4(1H,3H)-dione] the EC50 was 306 nM. For `CCOC(=O)c1cn2nc(-c3c[nH]c(=O)[nH]c3=O)cc([C@H]3C[C@@H]3c3ccc(F)cc3)c2n1` (racemic) [Example 172, ethyl 6-(2,4-dioxo-1,2,3,4-tetrahydropyrimidin-5-yl)-8-((1S,2S)-2-(4-fluorophenyl)cyclopropyl)imidazo[1,2-b]pyridazine-2-carboxylate], the EC50 was 65.1 nM. `O=c1[nH]cc(-c2cc([C@H]3C[C@@H]3c3ccccn3)c3ncc(F)n3n2)c(=O)[nH]1` (racemic) [Example 178, 5-(3-fluoro-8-((1S,2S)-2-(pyridin-2-yl)cyclopropyl)imidazo[1,2-b]pyridazin-6-yl)pyrimidine-2,4(1H,3H)-dione] gave an EC50 of 4.35 nM. `O=c1[nH]cc(-c2cc([C@H]3C[C@@H]3c3cncnc3)c3ncc(F)n3n2)c(=O)[nH]1` (racemic) [Example 179, 5-(3-fluoro-8-((1S,2S)-2-(pyrimidin-5-yl)cyclopropyl)imidazo[1,2-b]pyridazin-6-yl)pyrimidine-2,4(1H,3H)-dione] showed an EC50 of 60.5 nM. `O=c1[nH]cc(-c2cc([C@H]3C[C@@H]3c3cccnc3)c3ncc(F)n3n2)c(=O)[nH]1` (racemic) [Example 180, 5-(3-fluoro-8-((1S,2S)-2-(pyridin-3-yl)cyclopropyl)imidazo[1,2-b]pyridazin-6-yl)pyrimidine-2,4(1H,3H)-dione] showed an EC50 of 4.67 nM. In the case of `O=c1[nH]cc(-c2cc([C@H]3C[C@@H]3c3ccncc3)c3ncc(F)n3n2)c(=O)[nH]1` (racemic) [Example 181, 5-(3-fluoro-8-((1S,2S)-2-(pyridin-4-yl)cyclopropyl)imidazo[1,2-b]pyridazin-6-yl)pyrimidine-2,4(1H,3H)-dione], the EC50 is reported as 6.42 nM. Compound `O=c1[nH]cc(-c2cc([C@H]3C[C@@H]3c3ccc(Cl)cc3)c3ncc(F)n3n2)c(=O)[nH]1` (racemic) [Example 182, 5-(8-((2S,2S)-2-(4-chlorophenyl)cyclopropyl)-3-fluoroimidazo[1,2-b]pyridazin-6-yl)pyrimidine-2,4(1H,3H)-dione] has an EC50 of 10.4 nM. For `O=c1[nH]cc(-c2cc([C@H]3C[C@@H]3c3ccc(C(F)(F)F)cc3)c3ncc(F)n3n2)c(=O)[nH]1` (racemic) [Example 183, 5-(3-fluoro-8-((1S,2S)-2-(4-(trifluoromethyl)phenyl)cyclopropyl)imidazo[1,2-b]pyridazin-6-yl)pyrimidine-2,4(1H,3H)-dione], the EC50 was 23.9 nM.
